One experiment deals with T1, KRas^G12D (Homo sapiens, UniProt P01116, G12D).
T1 construct: Biotinylated KRas (corresponding to amino acids 1-169, produced at Accelegan Inc.); biotin (biotinylated); purchased Accelegan Inc
Briefly: KRas binding assay (TR-FRET tracer displacement), KRas G12D. (In general: TR-FRET usually uses a lanthanide donor and a delayed reading to cut background.)

The target in another experiment is T2, KRas^G12R (Homo sapiens, UniProt P01116, G12R).
T2 construct: Biotinylated KRas (corresponding to amino acids 1-169, produced at Accelegan Inc.); biotin (biotinylated); purchased Accelegan Inc
T2 sequence (P01116 1-169 isoform P01116-2 G12R): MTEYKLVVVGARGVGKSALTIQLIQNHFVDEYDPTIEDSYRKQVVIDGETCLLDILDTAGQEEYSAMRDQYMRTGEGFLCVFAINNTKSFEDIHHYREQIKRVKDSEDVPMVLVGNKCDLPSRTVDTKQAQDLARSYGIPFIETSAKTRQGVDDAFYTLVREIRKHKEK
In words: KRas binding assay (TR-FRET tracer displacement), KRas G12R.

In another experiment the target is T3, KRas^G12V (Homo sapiens, UniProt P01116, G12V).
T3 construct: Biotinylated KRas (corresponding to amino acids 1-169, produced at Accelegan Inc.); biotin (biotinylated); purchased Accelegan Inc
T3 sequence (P01116 1-169 isoform P01116-2 G12V): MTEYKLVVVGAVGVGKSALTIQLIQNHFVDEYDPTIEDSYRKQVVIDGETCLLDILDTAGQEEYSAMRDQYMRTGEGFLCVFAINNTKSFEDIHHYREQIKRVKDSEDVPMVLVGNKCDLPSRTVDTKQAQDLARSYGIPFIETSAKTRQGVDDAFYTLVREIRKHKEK
Briefly: KRas binding assay (TR-FRET tracer displacement), KRas G12V.

The subject of experiment [1] is KRas-mediated phosphorylation of ERK in AsPC-1 cells. Briefly: Inhibition of KRas-mediated phosphorylation of ERK (Cisbio HTRF pERK), AsPC-1 cells. In kind it is cell-based. To be noted: Homo sapiens, ASPC1, AsPC-1 cells; HTRF pERK. In a few lines: (§1)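 HTRF readout of phospho-ERK in cell lysates after 3 hrs of compound exposure. Dosing: 10 uM top, 3-fold steps, 10 doses, final DMSO 0.8%. Min control: 0.2 uM Trametinib. Lysis ran 40 mins at 4° C, and antibody detection 2 hrs at room temperature.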

The subject of experiment [2] is KRas-mediated phosphorylation of ERK in H727 cells. In words: Inhibition of KRas-mediated phosphorylation of ERK (Cisbio HTRF pERK), H727 cells. It is filed as cell-based. To be noted: Homo sapiens, NCI-H727, H727 cells; HTRF pERK. In outline: as §1

T1 sequence (P01116 1-169 isoform P01116-2 G12D): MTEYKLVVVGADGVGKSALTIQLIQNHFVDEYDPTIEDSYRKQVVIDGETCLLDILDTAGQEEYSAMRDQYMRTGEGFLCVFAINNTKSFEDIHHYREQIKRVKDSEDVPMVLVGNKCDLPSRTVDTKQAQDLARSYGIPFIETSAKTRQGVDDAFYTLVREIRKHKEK

A word on the IC50: it is the concentration that inhibits the measured activity by half. Low readings indicate inhibition by little substance, high ones a need for much substance. For `CCc1c(F)ccc2cc(O)cc(-c3ncc4c(NCc5cc(C(=O)N(C)C)n(CC6CC(O)C6)n5)nc(OC[C@@]56CCCN5C[C@H](F)C6)nc4c3F)c12` (stereo partly drawn) [Example 688, 3-(((7-(8-ethyl-7-fluoro-3-hydroxynaphthalen-1-yl)-8-fluoro-2-(((2R,7aS)-2-fluorohexahydro-1H-pyrrolizin-7a-yl)methoxy)pyrido[4,3-d]pyrimidin-4-yl)amino)methyl)-1-((3-hydroxycyclobutyl)methyl)-N,N-dimethyl-1H-pyrazole-5-carboxamide], the IC50 is 357 nM on KRas^G12D; 160 nM on KRas^G12R; 42 nM at KRas^G12V; greater than 10000 nM in experiment [1]; greater than 10000 nM in experiment [2].

For the molecule `CCc1c(F)ccc2cc(O)cc(-c3ncc4c(N5CCC(N6C(=O)OC7CN(C(C)=O)CC76)CC5)nc(OC[C@@]56CCCN5C[C@H](F)C6)nc4c3F)c12` (stereo partly drawn) [Example 689, 5-acetyl-3-(1-(7-(8-ethyl-7-fluoro-3-hydroxynaphthalen-1-yl)-8-fluoro-2-(((2R,7aS)-2-fluorotetrahydro-1H-pyrrolizin-7a(5H)-yl)methoxy)pyrido[4,3-d]pyrimidin-4-yl)piperidin-4-yl)hexahydro-2H-pyrrolo[3,4-d]oxazol-2-one], the IC50 is 1650 nM at KRas^G12D; 349 nM on KRas^G12R; 98 nM at KRas^G12V; greater than 10000 nM in experiment [1]; greater than 10000 nM in experiment [2].

With `CCc1c(F)ccc2cc(O)cc(-c3ncc4c(NCc5cc(C(=O)N(C)C)nn5C5CS(=O)(=O)C5)nc(OC[C@@]56CCCN5C[C@H](F)C6)nc4c3F)c12` [Example 691, 1-(1,1-dioxidothietan-3-yl)-5-(((7-(8-ethyl-7-fluoro-3-hydroxynaphthalen-1-yl)-8-fluoro-2-(((2R,7aS)-2-fluorohexahydro-1H-pyrrolizin-7a-yl)methoxy)pyrido[4,3-d]pyrimidin-4-yl)amino)methyl)-N,N-dimethyl-1H-pyrazole-3-carboxamide], the IC50 on KRas^G12D was 5 nM; on KRas^G12R it was 6 nM; at KRas^G12V, 2 nM; in experiment [1], greater than 10000 nM; in experiment [2], greater than 10000 nM.

As for `CCc1c(F)ccc2cc(O)cc(-c3ncc4c(NCc5cn(C(=O)N(C)C)nc5NC(=O)C5CC(O)C5)nc(OC[C@@]56CCCN5C[C@H](F)C6)nc4c3F)c12` (stereo partly drawn) [Example 693, 4-(((7-(8-ethyl-7-fluoro-3-hydroxynaphthalen-1-yl)-8-fluoro-2-(((2R,7aS)-2-fluorohexahydro-1H-pyrrolizin-7a-yl)methoxy)pyrido[4,3-d]pyrimidin-4-yl)amino)methyl)-3-(3-hydroxycyclobutanecarboxamido)-N,N-dimethyl-1H-pyrazole-1-carboxamide], the IC50 on KRas^G12D is 509 nM; at KRas^G12R, 38 nM; on KRas^G12V, 25 nM; in experiment [1], greater than 10000 nM; in experiment [2], greater than 10000 nM.

`CCc1c(F)ccc2cc(O)cc(-c3ncc4c(N5CC6C(=O)NC(=O)C6C5)nc(OC[C@]56CCCN5[C@H](COC(=O)N(C)C)CC6)nc4c3F)c12` (stereo partly drawn) [Example 708, ((3S,7aR)-7a-(((4-(4,6-dioxohexahydropyrrolo[3,4-c]pyrrol-2(1H)-yl)-7-(8-ethyl-7-fluoro-3-hydroxynaphthalen-1-yl)-8-fluoropyrido[4,3-d]pyrimidin-2-yl)oxy)methyl)hexahydro-1H-pyrrolizin-3-yl)methyl dimethylcarbamate]: the IC50 was 19900 nM at KRas^G12D; 39800 nM at KRas^G12R; 42900 nM on KRas^G12V; greater than 10000 nM in experiment [1]; greater than 10000 nM in experiment [2].

With `CN(C)C(=O)n1cc(CNc2nc(OC[C@@]34CCCN3C[C@H](F)C4)nc3c(F)c(-c4cc(O)cc5ccc(F)c(Cl)c45)ncc23)c(NC(=O)[C@H]2C[C@H](O)C2)n1` [Example 775, 4-(((7-(8-chloro-7-fluoro-3-hydroxynaphthalen-1-yl)-8-fluoro-2-(((2R,7aS)-2-fluorohexahydro-1H-pyrrolizin-7a-yl)methoxy)pyrido[4,3-d]pyrimidin-4-yl)amino)methyl)-3-((1r,3S)-3-hydroxycyclobutanecarboxamido)-N,N-dimethyl-1H-pyrazole-1-carboxamide], the IC50 at KRas^G12D was 23 nM; on KRas^G12R, 3 nM; on KRas^G12V, 4 nM; in experiment [1] it was greater than 10000 nM; in experiment [2] it was greater than 10000 nM.

As to `CCc1c(F)ccc2cc(O)cc(-c3ncc4c(N5CCC[C@@](C)(O)C5)nc(OCC5(CN(C)C)CC5CO)nc4c3F)c12` (stereo partly drawn) [Example 813, (3R)-1-(2-((1-((dimethylamino)methyl)-2-(hydroxymethyl)cyclopropyl)methoxy)-7-(8-ethyl-7-fluoro-3-hydroxynaphthalen-1-yl)-8-fluoropyrido[4,3-d]pyrimidin-4-yl)-3-methylpiperidin-3-ol], the half-inhibitory concentration (IC50) is less than 2 nM on KRas^G12D; 4 nM at KRas^G12R; less than 2 nM at KRas^G12V; 1080 nM in experiment [1]; 2550 nM in experiment [2].

`O=C1NS(=O)(=O)NC12CCCN(c1nc(OC[C@@]34CCCN3C[C@H](F)C4)nc3c(F)c(-c4cc(O)cc5ccc(F)c(Cl)c45)ncc13)C2` (stereo partly drawn) [Example 816, 7-(7-(8-chloro-7-fluoro-3-hydroxynaphthalen-1-yl)-8-fluoro-2-(((2R,7aS)-2-fluorotetrahydro-1H-pyrrolizin-7a(5H)-yl)methoxy)pyrido[4,3-d]pyrimidin-4-yl)-2-thia-1,3,7-triazaspiro[4.5]decan-4-one 2,2-dioxide]: the IC50 at KRas^G12D was 8 nM; on KRas^G12R, 3 nM; on KRas^G12V, 3 nM; in experiment [1], greater than 10000 nM; in experiment [2], greater than 10000 nM.

Turning to `CCc1c(F)ccc2cc(O)cc(-c3ncc4c(N5CCC[C@@](C)(O)C5)nc(OCC56CC5CCCN(C)C6)nc4c3F)c12` (stereo partly drawn) [Example 828, (3R)-1-(7-(8-ethyl-7-fluoro-3-hydroxynaphthalen-1-yl)-8-fluoro-2-((3-methyl-3-azabicyclo[5.1.0]octan-1-yl)methoxy)pyrido[4,3-d]pyrimidin-4-yl)-3-methylpiperidin-3-ol], the IC50 was 11400 nM at KRas^G12D; 21400 nM on KRas^G12R; 12700 nM at KRas^G12V; greater than 10000 nM in experiment [1]; greater than 10000 nM in experiment [2].

In the case of `CCc1c(F)ccc2cc(O)cc(-c3ncc4c(N5CCC(Cc6cncn6C)C5)nc(OC[C@@]56CCCN5C[C@H](F)C6)nc4c3F)c12` (stereo partly drawn) [Example 829, 5-ethyl-6-fluoro-4-(8-fluoro-2-(((2R,7aS)-2-fluorotetrahydro-1H-pyrrolizin-7a(5H)-yl)methoxy)-4-(3-((1-methyl-1H-imidazol-5-yl)methyl)pyrrolidin-1-yl)pyrido[4,3-d]pyrimidin-7-yl)naphthalen-2-ol], the IC50 at KRas^G12D was 939 nM; at KRas^G12R, 460 nM; on KRas^G12V it was 195 nM; in experiment [1], greater than 10000 nM; in experiment [2], greater than 10000 nM.

On to `CCc1c(F)ccc2cc(O)cc(-c3ncc4c(N5CCCCCC(P(C)(C)=O)C5)nc(OC[C@@]56CCCN5C[C@H](F)C6)nc4c3F)c12` (stereo partly drawn) [Example 864, (1-(7-(8-ethyl-7-fluoro-3-hydroxynaphthalen-1-yl)-8-fluoro-2-(((2R,7aS)-2-fluorotetrahydro-1H-pyrrolizin-7a(5H)-yl)methoxy)pyrido[4,3-d]pyrimidin-4-yl)azocan-3-yl)dimethylphosphine oxide], for which the IC50 on KRas^G12D is 2130 nM; at KRas^G12R, 1790 nM; on KRas^G12V it was 946 nM; in experiment [1], greater than 10000 nM; in experiment [2] it was greater than 10000 nM.

As to `CCc1c(F)ccc2cc(O)cc(-c3ncc4c(N5CCn6ncc(C#N)c6C5)nc(OC[C@@]56CCCN5C[C@H](F)C6)nc4c3F)c12` [Example 865, 5-(7-(8-ethyl-7-fluoro-3-hydroxynaphthalen-1-yl)-8-fluoro-2-(((2R,7aS)-2-fluorotetrahydro-1H-pyrrolizin-7a(5H)-yl)methoxy)pyrido[4,3-d]pyrimidin-4-yl)-4,5,6,7-tetrahydropyrazolo[1,5-a]pyrazine-3-carbonitrile], the IC50 at KRas^G12D was 809 nM; at KRas^G12R it was 282 nM; at KRas^G12V, 310 nM; in experiment [1], 7700 nM; in experiment [2] it was greater than 10000 nM.

`CCc1c(F)ccc2cc(O)cc(-c3ncc4c(N5Cc6c(C(=O)N(C)C)nn(C)c6C5)nc(OC[C@@]56CCCN5C[C@H](F)C6)nc4c3F)c12` [Example 867, 5-(7-(8-ethyl-7-fluoro-3-hydroxynaphthalen-1-yl)-8-fluoro-2-(((2R,7aS)-2-fluorotetrahydro-1H-pyrrolizin-7a(5H)-yl)methoxy)pyrido[4,3-d]pyrimidin-4-yl)-N,N, 1-trimethyl-1,4,5,6-tetrahydropyrrolo[3,4-c]pyrazole-3-carboxamide]: the IC50 on KRas^G12D was 527 nM; on KRas^G12R, 253 nM; on KRas^G12V it was 97 nM; in experiment [1], greater than 10000 nM; in experiment [2], 3410 nM.

Consider `CCc1c(F)ccc2cc3[nH]ncc3c(-c3ncc4c(N5CCC[C@]6(C5)NC(=O)NC6=O)nc(OCC56CCCN5CCC6)nc4c3F)c12` [Example 884, (5R)-7-(7-(5-ethyl-6-fluoro-1H-benzo[f]indazol-4-yl)-8-fluoro-2-((tetrahydro-1H-pyrrolizin-7a(5H)-yl)methoxy)pyrido[4,3-d]pyrimidin-4-yl)-1,3,7-triazaspiro[4.5]decane-2,4-dione], for which the IC50 was less than 2 nM on KRas^G12D; less than 2 nM at KRas^G12R; less than 2 nM on KRas^G12V; 3180 nM in experiment [1]; 2810 nM in experiment [2].

For the origin of these results see patent publication US20260015350A1, “AZAQUINAZOLINE PAN-KRAS INHIBITORS” (Mirati Therapeutics, Inc., priority 2022, published 2026).
